Here are results for 17 compounds from US9493485B2, “Spirocyclic dihydro-thiazine and dihydro-oxazine BACE inhibitors, and compositions and uses thereof” (Imago Pharmaceuticals, Inc., priority 2012, dated 2016).

Like-named read-outs stand apart in the source and are kept apart here.

Test [1] deals with T1, BACE1 (Homo sapiens (Human), UniProt P56817). Put plainly: BACE1 AlphaScreen assay (displacement of biotinylated BACE1 binding site probe). To be noted: read-out: BACE1 AS IC50. As for the experimental part: (§1) BACE1 activity can be assessed in an AlphaScreen® assay. Compounds to be assessed (e.g. compounds as described in the above examples) are serially diluted 1:4 in DMSO, then plated by diluting 10 μL of compound with 40 μl of assay buffer (1×PBS, 0.01% Tween-20, pH 7.0, 0.05% BSA). The diluted compound is transferred (4 μL per well) to a 386 well assay plate and 4 μL of BACE1 enzyme ([…]) is added and incubated for 15 minutes. This assay uses a probe that is a BACE1 binding sight ligand linked to biotin, which can be displaced by test compound dependent on compound binding affinity. This of biotinylated probe (4 μL) is added and incubated for 1 hour, followed with 4 μL of donor and acceptor bead mixture and incubated for 2 hours. The fluorescent signal is read on a plate reader and the value as a function of compound concentration is used to determine the IC50. Compounds are also assessed for BACE1 and Cathepsin D activity using an FP Assay. Compounds to be assessed (e.g. compounds as described in the above examples) are serially diluted 1:3 with DMSO and each concentration point is transferred to a 96 well plate, 6 μL per well, followed by addition of 194 μL of assay buffer (100 mM sodium acetate, pH 4.5 with 0.001% Tween-20). A 10 μL compound sample from this plate is transferred to a well of a 384 well plate and combined with 10 μL per well of BACE1 enzyme (0.3 nM in assay buffer) or Cathepsin D enzyme (1.8 nM in assay buffer) and the plate is incubated at room temperature for 30 minutes.
T1 sequence (P56817 46-501): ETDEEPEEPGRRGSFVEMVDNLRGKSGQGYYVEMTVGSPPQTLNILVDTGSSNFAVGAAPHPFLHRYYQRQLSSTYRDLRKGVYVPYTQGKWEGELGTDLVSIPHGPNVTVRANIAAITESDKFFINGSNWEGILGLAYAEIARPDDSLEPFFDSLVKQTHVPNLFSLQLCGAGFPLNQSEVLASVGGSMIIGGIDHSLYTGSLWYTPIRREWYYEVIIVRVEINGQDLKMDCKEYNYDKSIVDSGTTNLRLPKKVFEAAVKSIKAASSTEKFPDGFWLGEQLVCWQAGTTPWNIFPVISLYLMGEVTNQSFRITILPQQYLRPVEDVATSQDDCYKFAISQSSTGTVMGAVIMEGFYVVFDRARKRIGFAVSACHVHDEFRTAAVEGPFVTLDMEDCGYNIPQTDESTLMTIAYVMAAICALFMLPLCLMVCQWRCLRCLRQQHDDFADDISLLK
(In Alpha technology, singlet oxygen from a donor bead excites a nearby acceptor bead.)

In test [2] the target is T1, BACE1. Put plainly: BACE1 FP assay. To be noted: pH 4.5. The test is classed as biochemical. As for the experimental part:
as §1

The target in test [3] is Cathepsin D (Homo sapiens (Human), UniProt P07339). Kind of test: Cathepsin D FP assay. The class given is biochemical. To be noted: pH 4.5, read-out: CatD FP IC50. How it is done:
as §1

Test [4] has as its system BACE1 inhibition in HEKp293 cells transfected with APP751 gene (SWE293). Put plainly: SWE293 cellular assay: reduction of Aβ peptide production, ELISA. The class given is cell-based. To be noted: Homo sapiens, read-out: SWE293 ED50. How it is done: BACE1 inhibition is also assessed in a cellular assay. HEKp293 cells transfected with APP751 gene (SWE293, American Type Culture Collection CRL-1563) are used to assess compounds for reduction in levels of Aβ peptide production. SWE293 cell medium is DMEM supplemented with 10% fetal bovine serum and 2 mM L-glutamine, 1.0 mM sodium pyruvate, 25 mM Hepes Buffer, 0.4 mg/mL geneticin (G418, Gibco BRL 860-181IIJ). Cells are maintained diluting 1:10 for 4 days in T-150 flask and 35 mL of cell media. For plating, cells are rinsed with 5 mL of 1×PBS, trypsinized with 4 mL of 0.05% Tripsin for 1 minute, and 12 mL of cell media is added. These are centrifuged at 1000 rpm for 4 minutes and the media aspirated, then 8 mL of media per flask is added. Based on cell count, appropriate amounts of cell and cell media are combined, and 180 μl per well are plated (96 well) and the plates are incubated overnight at 37° C., 5% CO2. Compounds to be tested are serially diluted 1:3 in DMSO and twice in media (without G418) in V-bottom plates and incubated at room temperature. Plated cells are washed with media, 3×50 μL per well and 17 μL per well of appropriate dilution of compound is added. Plates are incubated for 2 hours, and the wash steps, compound addition and incubation are repeated. Sample is transferred to capture plate (prepared with 266 antibody, see e.g. Johnson-Wood et al., PNAS February 1997, 94: 1550-1555), along with a standard curve of Aβ-40. ELISA assay is used to assess Aβ levels, washing with TBS, 0.05% Tween20 pH 7.5, then adding 1.3 mg/mL 3D6 antibody 1:900 in specimen diluents with thimericol is added (100 μl per well) and incubated for 1 hour. Wash step is repeated and Streptavidin-AP diluted 1:1000 in specimen diluents with thimerisol is added (100 μL per well) and incubated for 1 hour. Wash step is repeated and fluorescent substrate is added, 100 μL per well and incubated for 10 minutes followed by reading the fluorescent signal on a plate reader.
On the technique in general: ELISA stands for enzyme-linked immunosorbent assay.

Where [5] appears, read: dose at which Aβ level is reduced by 50%, HEKp293 SWE293 cells.

Chain of Cathepsin D (P07339 65-412, species assumed): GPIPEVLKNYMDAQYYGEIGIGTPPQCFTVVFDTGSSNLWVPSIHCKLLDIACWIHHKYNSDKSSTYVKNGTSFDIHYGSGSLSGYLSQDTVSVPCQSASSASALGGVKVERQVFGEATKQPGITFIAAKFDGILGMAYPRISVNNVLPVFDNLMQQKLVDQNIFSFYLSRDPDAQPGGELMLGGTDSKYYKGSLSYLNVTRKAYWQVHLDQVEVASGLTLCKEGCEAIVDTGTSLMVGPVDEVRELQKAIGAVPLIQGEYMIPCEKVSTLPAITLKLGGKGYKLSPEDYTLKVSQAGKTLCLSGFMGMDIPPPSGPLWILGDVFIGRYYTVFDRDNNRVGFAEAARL

Regarding `C[C@@]1(c2cc(NC(=O)c3ccc(F)cn3)ccc2F)CC2(CCOCC2)OC(N)=N1` [Compound 9-128, (S)—N-(3-(2-amino-4-methyl-1,9-dioxa-3-azaspiro[5.5]undec-2-en-4-yl)-4-fluorophenyl)-5-fluoropicolinamide], the IC50 in test [1] is 4 nM; in test [2], 112 nM; in test [3] it was over 30000 nM; in test [4] (setting [5]), 9 nM.

On to `C[C@@]1(c2cc(NC(=O)c3ncc(Cl)cc3F)ccc2F)CC2(CCC2)OC(N)=N1` [Compound 9-131, (S)—N-(3-(6-amino-8-methyl-5-oxa-7-azaspiro[3.5]non-6-en-8-yl)-4-fluorophenyl)-5-chloro-3-fluoropicolinamide], for which the IC50 is 5.7 nM in test [1], 87 nM in test [2], over 30000 nM in test [3] and 46 nM in test [4] (setting [5]).

For `C[C@@]1(c2cc(NC(=O)c3ccc(Cl)cc3)ccc2F)CC2(CCC2)OC(N)=N1` [Compound 9-141, (S)—N-(3-(6-amino-8-methyl-5-oxa-7-azaspiro[3.5]non-6-en-8-yl)-4-fluorophenyl)-4-chlorobenzamide], the IC50 was 17.5 nM in test [1], 839 nM in test [2], over 30000 nM in test [3] and 109 nM in test [4].

In the case of `C[C@@]1(c2cc(NC(=O)c3ccc(C#N)cn3)ccc2F)CC2(CCC2)OC(N)=N1` [Compound 9-130, (S)—N-(3-(6-amino-8-methyl-5-oxa-7-azaspiro[3.5]non-6-en-8-yl)-4-fluorophenyl)-5-cyanopicolinamide], the IC50 in test [1] is 6 nM; in test [2] it was 46 nM; in test [3] it was over 30000 nM; in test [4] (setting [5]), 5.4 nM.

On to `CC1(c2cc(NC(=O)c3ccc(F)cn3)ccc2F)CC2(CCOCC2)OC(N)=N1` (centres unmarked) [Compound 9-120, N-(3-(2-amino-4-methyl-1,9-dioxa-3-azaspiro[5.5]undec-2-en-4-yl)-4-fluorophenyl)-5-fluoropicolinamide], for which the IC50 in test [1] is 19 nM; in test [2], 282 nM; in test [3] it was over 30000 nM; in test [4] (setting [5]) it was 13 nM.

For the compound `CC#Cc1cncc(-c2ccc(F)c([C@]3(C)CC4(CCC4)OC(N)=N3)c2)c1` [Compound 8-111, (S)-8-(2-fluoro-5-(5-(prop-1-ynyl)pyridin-3-yl)phenyl)-8-methyl-5-oxa-7-azaspiro[3.5]non-6-en-6-amine], the IC50 is 88 nM in test [1], 3510 nM in test [2], 5080 nM in test [3] and 391 nM in test [4] (setting [5]).

On to `CC1(c2cc(NC(=O)c3ccc(C#N)cn3)ccc2F)N=C(N)OC2(CCC2)C1(F)F` (centres unmarked) [Compound 9-161, N-(3-(6-amino-9,9-difluoro-8-methyl-5-oxa-7-azaspiro[3.5]non-6-en-8-yl)-4-fluorophenyl)-5-cyanopicolinamide], for which the IC50 in test [1] was 13.5 nM; in test [2], 66 nM; in test [3] it was over 30000 nM; in test [4] (setting [5]), 38 nM.

Take `C[C@@]1(c2cc(NC(=O)c3ccc(Cl)cn3)ccc2F)CC2(CCC2)SC(N)=N1` [Compound 9-145, (S)—N-(3-(6-amino-8-methyl-5-thia-7-azaspiro[3.5]non-6-en-8-yl)-4-fluorophenyl)-5-chloropicolinamide]: the IC50 was 4.5 nM in test [1], 1.9 nM in test [2], over 30000 nM in test [3] and 2 nM in test [4] (setting [5]).

With `C[C@]1(c2cc(NC(=O)c3ccc(F)cn3)ccc2F)CC2(CCC2)OC(N)=N1` [Compound 9-127, (R)—N-(3-(6-amino-8-methyl-5-oxa-7-azaspiro[3.5]non-6-en-8-yl)-4-fluorophenyl)-5-fluoropicolinamide], the IC50 in test [1] was 1310 nM; in test [2], 7440 nM; in test [3] it was over 30000 nM; in test [4] (setting [5]), over 10000 nM.

As to `Cc1nc(C(=O)Nc2ccc(F)c(C3(C)N=C(N)OC4(CCC4)C3(F)F)c2)co1` (centres unmarked) [Compound 9-165, N-(3-(6-amino-9,9-difluoro-8-methyl-5-oxa-7-azaspiro[3.5]non-6-en-8-yl)-4-fluorophenyl)-2-methyloxazole-4-carboxamide], the IC50 in test [1] is 34 nM; in test [2], 496 nM; in test [3], over 30000 nM; in test [4] (setting [5]), 176 nM.

Consider `CC1(c2cc(NC(=O)c3ccc(C#N)cn3)ccc2F)CC2(CCOCC2)OC(N)=N1` (centres unmarked) [Compound 9-139, N-(3-(2-amino-4-methyl-1,9-dioxa-3-azaspiro[5.5]undec-2-en-4-yl)-4-fluorophenyl)-5-cyanopicolinamide], for which the IC50 in test [1] is 9 nM; in test [2], 48 nM; in test [3], over 30000 nM; in test [4] (setting [5]), 5 nM.

Regarding `COc1cccnc1Nc1ccc(F)c([C@]2(C)CC3(CCOCC3)SC(N)=N2)c1` [Compound 13-182, (S)-4-(2-fluoro-5-(3-methoxypyridin-2-ylamino)phenyl)-4-methyl-9-oxa-1-thia-3-azaspiro[5.5]undec-2-en-2-amine], the IC50 in test [1] was 2 nM; in test [2], 32 nM; in test [3], 14700 nM; in test [4] (setting [5]), under 123 nM.

Regarding `C[C@@]1(c2cc(NC(=O)c3ccc(Cl)cn3)ccc2F)CC2(CCOCC2)OC(N)=N1` [Compound 9-122, (S)—N-(3-(2-amino-4-methyl-1,9-dioxa-3-azaspiro[5.5]undec-2-en-4-yl)-4-fluorophenyl)-5-chloropicolinamide], the IC50 in test [1] is 12 nM; in test [2] it was 59 nM; in test [3], over 30000 nM; in test [4], 4 nM.

Consider `C[C@@]1(c2cc(NC(=O)c3ccc(Br)cn3)ccc2F)CC2(CCC(F)(F)CC2)OC(N)=N1` [Compound 9-136, (S)—N-(3-(2-amino-9,9-difluoro-4-methyl-1-oxa-3-azaspiro[5.5]undec-2-en-4-yl)-4-fluorophenyl)-5-bromopicolinamide], for which the IC50 in test [1] is 7 nM; in test [2], 50 nM; in test [3] it was over 30000 nM; in test [4], 8.9 nM.

In the case of `C[C@@]1(c2cc(NC(=O)c3ccc(Cl)cn3)ccc2F)CC2(CCC(F)(F)CC2)OC(N)=N1` [Compound 9-124, (S)—N-(3-(2-amino-9,9-difluoro-4-methyl-1-oxa-3-azaspiro[5.5]undec-2-en-4-yl)-4-fluorophenyl)-5-chloropicolinamide], the IC50 in test [1] was 4.5 nM; in test [2], 60 nM; in test [3], over 30000 nM; in test [4] (setting [5]), 11 nM.

Regarding `CC1(c2cc(NC(=O)c3ccc(Cl)cn3)ccc2F)N=C(N)OC2(CCOCC2)C1(F)F` (centres unmarked) [Compound 9-158, N-(3-(2-amino-5,5-difluoro-4-methyl-1,9-dioxa-3-azaspiro[5.5]undec-2-en-4-yl)-4-fluorophenyl)-5-chloropicolinamide], the IC50 turned out to be 15 nM in test [1], 94 nM in test [2], 19600 nM in test [3] and 182 nM in test [4] (setting [5]).

As for `CC1(c2cc(NC(=O)c3ccc(Cl)cn3)ccc2F)CC2(CCOCC2)SC(N)=N1` (centres unmarked) [Compound 9-150, N-(3-(2-amino-4-methyl-9-oxa-1-thia-3-azaspiro[5.5]undec-2-en-4-yl)-4-fluorophenyl)-5-chloropicolinamide], the IC50 in test [1] was 9 nM; in test [2] it was 4 nM; in test [3], 10600 nM; in test [4] (setting [5]), under 4 nM.
